Legend:
Akt1 = target: T1, Akt1 (Homo sapiens, UniProt P31749); experiment: Akt activation assay (PDK1-mediated activation, LANCE Ultra crosstide TR-FRET), Akt1; assay type: biochemical; conditions: read-out: Biological Assay 1 IC50 (nM) Akt1
T1 construct: unspecified tag, removed (detagged) (cleaved yes); purchased SignalChem and Proteros (Akt1); Merck Millipore (PDK1) 14-452 (PDK1); none given for Akt1
Method in brief: (§1)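 Compound + Akt preinc.; start w/ PDK1 5 nM, DOPS/DOPC 5.5 μM each, PIP3 0.55 μM, ATP 100 μM, Ulight-crosstide 100 nM; HEPES pH 7.5, 10 mM MgCl2, 2 mM DTT, 1% DMSO; 30 min; EDTA stop; Eu-Ab TR-FRET; 4-PL IC50.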

p-Akt3 in WM115 cells = target: T2, p-Akt3 in WM115 cells (Homo sapiens, UniProt Q9Y243); experiment: Phospho-Akt cellular SureFire assay, p-Akt3 in WM115 cells; assay type: cell-based; conditions: insulin stimulated, read-out: Biological Assay 2 IC50 (nM) Akt3 WM115
T2 construct: SureFire assays to detect cellular p-Akt1, p-Akt2 and p-Akt3 levels in WM115 cells (Akt2/3) and LNCaP cells (Akt1); endogenous in cells; host or cells: WM115 (ECACC 91061232), insulin-stimulated
Method in brief: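 WM115 cells were serum-reduced to 0.1% FBS, stimulated with 100 nM insulin for 10 min, then exposed to compound (0.3% DMSO) for 15 min at 37 °C. Lysates were assayed for Thr308-phosphorylated Akt3 by AlphaScreen SureFire using an isoform-specific total Akt3 capture antibody. IC50 was derived from a 4-parameter fit.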

Akt2 = target: T3, Akt2 (Homo sapiens, UniProt P31751); experiment: Akt activation assay (PDK1-mediated activation, LANCE Ultra crosstide TR-FRET), Akt2; assay type: biochemical; conditions: read-out: Biological Assay 1 IC50 (nM) Akt2
T3 construct: unspecified tag, removed (detagged) (cleaved yes); purchased SignalChem and Proteros (Akt2); Merck Millipore (PDK1) 14-452 (PDK1); none given for Akt2
Method in brief: as §1

Akt3 = target: T4, Akt3 (Homo sapiens, UniProt Q9Y243); experiment: Akt activation assay (PDK1-mediated activation, LANCE Ultra crosstide TR-FRET), Akt3; assay type: biochemical; conditions: read-out: Biological Assay 1 IC50 (nM) Akt3
T4 construct: unspecified tag, removed (detagged) (cleaved yes); purchased SignalChem and Proteros (Akt3); Merck Millipore (PDK1) 14-452 (PDK1); none given for Akt3
Method in brief: as §1

p-Akt1 in LNCaP cells = target: T5, p-Akt1 in LNCaP cells (Homo sapiens, UniProt P31749); experiment: Phospho-Akt cellular SureFire assay, p-Akt1 in LNCaP cells; assay type: cell-based; conditions: read-out: Biological Assay 2 IC50 (nM) Akt1 LNCaP
T5 construct: SureFire assays to detect cellular p-Akt1, p-Akt2 and p-Akt3 levels in WM115 cells (Akt2/3) and LNCaP cells (Akt1); endogenous in cells; host or cells: LNCaP (ECACC 89110211)
Method in brief: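 LNCaP cells, 5×10^4/well, seeded overnight, switched to 0.1% FBS medium without insulin stimulation, then compound for 15 min at 37 °C (0.3% DMSO). Lysate p-Akt1 (pThr308) by AlphaScreen SureFire, two 2 h incubations at room temperature; IC50 by 4-parameter fit.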

p-Akt2 in WM115 cells = target: T6, p-Akt2 in WM115 cells (Homo sapiens, UniProt P31751); experiment: Phospho-Akt cellular SureFire assay, p-Akt2 in WM115 cells; assay type: cell-based; conditions: insulin stimulated, read-out: Biological Assay 2 IC50 (nM) Akt2 WM115
T6 construct: SureFire assays to detect cellular p-Akt1, p-Akt2 and p-Akt3 levels in WM115 cells (Akt2/3) and LNCaP cells (Akt1); endogenous in cells; host or cells: WM115 (ECACC 91061232), insulin-stimulated
Method in brief: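 WM115 cells in 0.1% FBS medium stimulated 10 min with 100 nM insulin, then exposed to compound for 15 min at 37° C (0.3% DMSO final). Lysates assayed by AlphaScreen with anti-(pThr308)Akt and isoform-specific total Akt2 antibodies; IC50 from 4-parameter fit.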

T3 sequence (P31751 whole entry): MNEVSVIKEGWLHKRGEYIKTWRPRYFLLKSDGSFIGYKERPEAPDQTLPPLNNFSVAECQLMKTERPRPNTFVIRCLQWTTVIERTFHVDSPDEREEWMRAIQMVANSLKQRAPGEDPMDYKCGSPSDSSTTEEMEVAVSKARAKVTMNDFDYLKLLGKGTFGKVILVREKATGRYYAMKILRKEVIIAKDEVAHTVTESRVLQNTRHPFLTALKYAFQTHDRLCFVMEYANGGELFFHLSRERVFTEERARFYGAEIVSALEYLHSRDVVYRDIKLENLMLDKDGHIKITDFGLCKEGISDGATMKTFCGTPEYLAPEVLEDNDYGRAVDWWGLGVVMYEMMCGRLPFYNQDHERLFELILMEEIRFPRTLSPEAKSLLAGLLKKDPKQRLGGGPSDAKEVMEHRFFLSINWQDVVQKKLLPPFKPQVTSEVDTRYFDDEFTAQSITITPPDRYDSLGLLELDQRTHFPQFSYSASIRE
T6 sequence (P31751 whole entry): as above
T4 sequence (Q9Y243 whole entry): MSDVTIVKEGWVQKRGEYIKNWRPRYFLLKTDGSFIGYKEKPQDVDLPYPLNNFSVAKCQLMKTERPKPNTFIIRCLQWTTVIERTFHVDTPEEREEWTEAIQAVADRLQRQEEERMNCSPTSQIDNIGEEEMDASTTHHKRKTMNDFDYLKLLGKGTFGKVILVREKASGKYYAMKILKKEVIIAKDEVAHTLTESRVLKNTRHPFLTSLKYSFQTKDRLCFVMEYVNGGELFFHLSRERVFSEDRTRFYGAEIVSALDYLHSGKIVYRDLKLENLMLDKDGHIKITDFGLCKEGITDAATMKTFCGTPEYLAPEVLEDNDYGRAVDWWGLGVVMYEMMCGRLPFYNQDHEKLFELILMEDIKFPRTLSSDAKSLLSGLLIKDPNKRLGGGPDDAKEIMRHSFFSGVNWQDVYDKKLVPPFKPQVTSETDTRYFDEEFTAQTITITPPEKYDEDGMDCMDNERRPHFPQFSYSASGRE
T2 sequence (Q9Y243 whole entry): as above
T5 sequence (P31749 whole entry): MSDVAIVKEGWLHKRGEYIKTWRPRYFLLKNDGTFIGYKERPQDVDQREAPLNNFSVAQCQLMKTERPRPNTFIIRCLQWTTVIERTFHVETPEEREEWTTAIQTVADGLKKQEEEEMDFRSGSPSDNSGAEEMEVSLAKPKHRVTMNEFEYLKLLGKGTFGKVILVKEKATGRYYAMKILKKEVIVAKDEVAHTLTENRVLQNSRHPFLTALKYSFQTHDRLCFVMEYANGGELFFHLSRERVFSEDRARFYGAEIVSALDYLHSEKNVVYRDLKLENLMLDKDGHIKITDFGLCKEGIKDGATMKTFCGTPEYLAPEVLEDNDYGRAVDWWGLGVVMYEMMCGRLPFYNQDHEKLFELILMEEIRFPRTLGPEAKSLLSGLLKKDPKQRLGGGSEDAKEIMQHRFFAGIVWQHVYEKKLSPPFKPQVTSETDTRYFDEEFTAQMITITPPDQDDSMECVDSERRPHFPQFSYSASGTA
T1 sequence (P31749 whole entry): as above

Row | Molecule | IC50 (Akt1) [nM] | IC50 (p-Akt3 in WM115 cells) [nM] | IC50 (Akt2) [nM] | IC50 (Akt3) [nM] | IC50 (p-Akt1 in LNCaP cells) [nM] | IC50 (p-Akt2 in WM115 cells) [nM]
1 | CC(=O)N(C)[C@H]1CC[C@H](CC(=O)Nc2cc(-c3ccsc3)c(-c3ccc([C@]4(N)C[C@H](F)C4)cc3)nn2)CC1 [Example 75, N-(6-(4-(trans-1-amino-3-fluorocyclobutyl)phenyl)-5-(thiophen-3-yl)pyridazin-3-yl)-2-(trans-4-(N-methylacetamido)cyclohexyl)acetamide] | > 16000 | 46 | 580 | 18 | > 30000 | 3200
2 | CC(=O)N(C)[C@H]1CC[C@H](CC(=O)Nc2cnc(-c3ccc(C(C)(C)N)c(F)c3)c(-c3ccccc3)c2)CC1 [Example 31, N-(6-(4-(2-aminopropan-2-yl)-3-fluorophenyl)-5-phenylpyridin-3-yl)-2-(trans-4-(N-methylacetamido)cyclohexyl)acetamide] | > 30000 | 440 | > 15000 | 1700 | > 30000 | > 30000
3 | CCC(=O)N(C)[C@H]1CC[C@H](CC(=O)Nc2cc(-c3ccsc3)c(-c3ccc([C@]4(N)C[C@H](F)C4)cc3)nn2)CC1 [Example 125] | > 30000 | 22 | 1500 | 26 | > 30000 | 3000
4 | CN(C(=O)C1CC1)[C@H]1CC[C@H](CC(=O)Nc2cnc(-c3ccc(C(C)(C)N)c(F)c3)c(-c3ccccc3)c2)CC1 [Example 53, N-(trans-4-(2-((6-(4-(2-aminopropan-2-yl)-3-fluorophenyl)-5-phenylpyridin-3-yl)amino)-2-oxoethyl)cyclohexyl)-N-methylcyclopropanecarboxamide] | > 30000 | 680 | > 30000 | 4100 | > 30000 | 18000
5 | CC(C)C(=O)N(C)[C@H]1CC[C@H](CC(=O)Nc2cnc(-c3ccc(C(C)(C)N)cc3)c(-c3ccccc3)c2)CC1 [Example 4, N-(trans-4-(2-((6-(4-(2-aminopropan-2-yl)phenyl)-5-phenylpyridin-3-yl)amino)-2-oxoethyl)cyclohexyl)-N-methylisobutyramide] | > 30000 | 190 | 7300 | 73 | > 30000 | 7400
6 | CN([C@H]1CC[C@H](CC(=O)Nc2cnc(-c3ccc(C4(N)CCC4)cc3)c(-c3ccsc3)c2)CC1)S(C)(=O)=O [Example 17, N-(6-(4-(1-aminocyclobutyl)phenyl)-5-(thiophen-3-yl)pyridin-3-yl)-2-(trans-4-(N-methylmethylsulfonamido)cyclohexyl)acetamide] | > 26000 | 140 | 1200 | 48 | 7100 | 1900
7 | CCN(C(C)=O)[C@H]1CC[C@H](CC(=O)Nc2cc(-c3ccccc3)c(-c3ccc([C@]4(N)C[C@](C)(O)C4)cc3)nn2)CC1 [Example 106, N-(6-(4-(trans-1-amino-3-hydroxy-3-methylcyclobutyl)phenyl)-5-phenylpyridazin-3-yl)-2-(trans-4-(N-ethylacetamido)cyclohexyl)acetamide] | > 13000 | 25 | 210 | 8 | 4000 | 1500
8 | CC(=O)N(C)[C@H]1CC[C@H](CC(=O)Nc2cnc(-c3ccc(C4(N)CCC4)cc3)c(-c3ccccc3)c2)CC1 [Example 10, N-(6-(4-(1-aminocyclobutyl)phenyl)-5-phenylpyridin-3-yl)-2-(trans-4-(N-methylacetamido)cyclohexyl)acetamide] | 6200 | 39 | 260 | 30 | 6700 | 970
9 | N-(6-(4-(trans-1-amino-3-hydroxy-3-methylcyclobutyl)phenyl)-5-phenylpyridin-3-yl)-2-(trans-4-(N-ethylacetamido)cyclohexyl)acetamide [Example 119] | 5900 | 22 | 70 | 5 | 2300 | 410
10 | CC(=O)N(C(C)C)[C@H]1CC[C@H](CC(=O)Nc2cc(-c3ccccc3)c(-c3ccc([C@]4(N)C[C@](C)(O)C4)cc3)nn2)CC1 [Example 100, N-(6-(4-(trans-1-amino-3-hydroxy-3-methylcyclobutyl)phenyl)-5-phenylpyridazin-3-yl)-2-(trans-4-(N-isopropylacetamido)cyclohexyl)acetamide] | 2400 | 26 | 170 | 8 | 790 | 1000

The next lines start with the values.

Row | IC50 (Akt1) [nM] | IC50 (p-Akt3 in WM115 cells) [nM] | IC50 (Akt2) [nM] | IC50 (Akt3) [nM] | IC50 (p-Akt1 in LNCaP cells) [nM] | IC50 (p-Akt2 in WM115 cells) [nM] | Molecule
11 | > 30000 | 90 | 490 | 24 | > 30000 | 2000 | CCC(=O)N(C)[C@H]1CC[C@H](CC(=O)Nc2cc(-c3ccccc3)c(-c3ccc(C4(N)CC4)cc3)nn2)CC1 [Example A91, N-(trans-4-(2-((6-(4-(1-aminocyclopropyl)phenyl)-5-phenylpyridazin-3-yl)amino)-2-oxoethyl)cyclohexyl)-N-methylpropionamide]
12 | > 30000 | 470 | 5700 | 120 | > 30000 | 6100 | COC(=O)N(C)[C@H]1CC[C@H](CC(=O)Nc2cc(-c3ccccc3F)c(-c3ccc(C4(N)CCC4)cc3)cn2)CC1 [Example A63, Methyl (trans-4-(2-((5-(4-(1-aminocyclobutyl)phenyl)-4-(2-fluorophenyl)pyridin-2-yl)amino)-2-oxoethyl)cyclohexyl)(methyl)carbamate]
13 | > 30000 | 150 | 340 | 42 | > 30000 | 2000 | NC1(c2ccc(-c3cnc(NC(=O)C[C@H]4CC[C@H](N5CCOC5=O)CC4)cc3-c3ccccc3)cc2)CC1 [Example A51, N-(5-(4-(1-aminocyclopropyl)phenyl)-4-phenylpyridin-2-yl)-2-(trans-4-(2-oxooxazolidin-3-yl)cyclohexyl)acetamide]
14 | 11000 | 440 | 2400 | 630 | > 30000 | 7600 | COC(=O)N[C@H]1CC[C@H](CC(=O)Nc2cnc(-c3ccc(C4(N)CC(F)(F)C4)cc3)c(-c3ccccc3)c2)CC1 [Example A4, Methyl (trans-4-(2-((6-(4-(1-amino-3,3-difluorocyclobutyl)phenyl)-5-phenylpyridin-3-yl)amino)-2-oxoethyl)cyclohexyl)carbamate]
15 | > 30000 | 85 | 1400 | 30 | > 30000 | 1400 | CC(=O)N(C)[C@H]1CC[C@H](CC(=O)Nc2cc(-c3ccsc3)c(-c3ccc(C4(N)CCC4)cc3)cn2)CC1 [Example A64, N-(5-(4-(1-aminocyclobutyl)phenyl)-4-(thiophen-3-yl)pyridin-2-yl)-2-(trans-4-(N-methylacetamido)cyclohexyl)acetamide]
16 | 4000 | 130 | 420 | 110 | > 16000 | 2800 | COC(=O)N(C)[C@H]1CC[C@H](CC(=O)Nc2cnc(-c3ccc(C4(N)CCC4)cc3)c(-c3ccccc3)c2)CC1 [Example A1, Methyl (trans-4-(2-((6-(4-(1-aminocyclobutyl)phenyl)-5-phenylpyridin-3-yl)amino)-2-oxoethyl)cyclohexyl)(methyl)carbamate]
